Tests used:
Format in all cases: functional, cell-based
[1] = system: MDA-MB-231; experiment: Cytotoxicity against human MDA-MB-231 cells after 48 hrs by MTT assay; settings: MDA-MB-231, 48 h
[2] = system: A549; experiment: Cytotoxicity against human A549 cells after 48 hrs by MTT assay; settings: A549, 48 h
[3] = system: DU-145; experiment: Cytotoxicity against human DU145 cells after 48 hrs by MTT assay; settings: DU-145, 48 h

Row | SMILES | IC50 [1] [µM] | IC50 [2] [µM] | IC50 [3] [µM]
1 | O=C1N(Cc2ccc3c(c2)OCO3)c2ccccc2C12c1c(-c3ccccc3)n[nH]c1Nc1[nH]c(=O)[nH]c(=O)c12 (stereo not given) | 20.2 | 17.4 | 19.6
2 | O=C1N(Cc2ccc3c(c2)OCO3)c2ccc(Cl)cc2C12c1c(-c3ccccc3)n[nH]c1Nc1[nH]c(=O)[nH]c(=O)c12 (stereo not given) | 15.9 | 26.3 | 24.4
3 | O=C1N(Cc2ccc3c(c2)OCO3)c2ccc(Br)cc2C12c1c(-c3ccccc3)n[nH]c1Nc1[nH]c(=O)[nH]c(=O)c12 (stereo not given) | 13.6 | 14.8 | 16.5
4 | COc1cc(CN2C(=O)C3(c4cc(Cl)ccc42)c2c(-c4ccccc4)n[nH]c2Nc2[nH]c(=O)[nH]c(=O)c23)cc(OC)c1OC (stereo not given) | 39.8 | 31.3 | 32.6
5 | COc1cc(CN2C(=O)C3(C4=C(COC4=O)Nc4[nH]nc(-c5ccccc5)c43)c3cc(Cl)ccc32)cc(OC)c1OC (stereo not given) | 19.4 | 19.9 | 20.5
6 | O=C1Nc2ccccc2C12c1c(-c3ccccc3)n[nH]c1Nc1[nH]c(=O)[nH]c(=O)c12 (stereo not given) | 35.2 | 17.7 | 18.3
7 | O=C1Nc2ccc(F)cc2C12c1c(-c3ccccc3)n[nH]c1Nc1[nH]c(=O)[nH]c(=O)c12 (stereo not given) | 75.2 | 25.2 | 42.3
8 | O=C1Nc2c(F)cccc2C12c1c(-c3ccccc3)n[nH]c1Nc1[nH]c(=O)[nH]c(=O)c12 (stereo not given) | 66.9 | 18.2 | 20.7
9 | O=C1Nc2ccc(Cl)cc2C12c1c(-c3ccccc3)n[nH]c1Nc1[nH]c(=O)[nH]c(=O)c12 (stereo not given) | 68.4 | 7.92 | 15.8
10 | O=C1Nc2ccc(Br)cc2C12c1c(-c3ccccc3)n[nH]c1Nc1[nH]c(=O)[nH]c(=O)c12 (stereo not given) | 48.2 | 21.6 | 30.5
11 | O=C1Nc2ccc(I)cc2C12c1c(-c3ccccc3)n[nH]c1Nc1[nH]c(=O)[nH]c(=O)c12 (stereo not given) | 46.1 | 12.5 | 10.4
12 | Cc1ccc2c(c1)C1(C(=O)N2)c2c(-c3ccccc3)n[nH]c2Nc2[nH]c(=O)[nH]c(=O)c21 (stereo not given) | 63.2 | 7.82 | 9.63
13 | COc1ccc2c(c1)C1(C(=O)N2)c2c(-c3ccccc3)n[nH]c2Nc2[nH]c(=O)[nH]c(=O)c21 (stereo not given) | 28.5 | 23.9 | 22.9
14 | O=C1Nc2ccc([N+](=O)[O-])cc2C12c1c(-c3ccccc3)n[nH]c1Nc1[nH]c(=O)[nH]c(=O)c12 (stereo not given) | 63.2 | 7.82 | 9.63
15 | O=C1N(Cc2ccccc2)c2ccccc2C12c1c(-c3ccccc3)n[nH]c1Nc1[nH]c(=O)[nH]c(=O)c12 (stereo not given) | 13.1 | 36.2 | 18.2
16 | O=C1N(Cc2ccccc2)c2ccc(Cl)cc2C12c1c(-c3ccccc3)n[nH]c1Nc1[nH]c(=O)[nH]c(=O)c12 (stereo not given) | 12.6 | 19.9 | 20.4
17 | O=C1N(Cc2ccccc2)c2ccc(Br)cc2C12c1c(-c3ccccc3)n[nH]c1Nc1[nH]c(=O)[nH]c(=O)c12 (stereo not given) | 6.33 | 25.4 | 23.7
18 | COc1ccc2c(c1)C1(C(=O)N2Cc2ccccc2)c2c(-c3ccccc3)n[nH]c2Nc2[nH]c(=O)[nH]c(=O)c21 (stereo not given) | 14.5 | 16.8 | 21.6

Row | SMILES | IC50 [1] [µM] | IC50 [2] [µM] | IC50 [3] [µM]
19 | O=C1OCC2=C1C1(C(=O)Nc3ccccc31)c1c(-c3ccccc3)n[nH]c1N2 (stereo not given) | 48.9 | 13.5 | 25.2
20 | O=C1OCC2=C1C1(C(=O)Nc3ccc(F)cc31)c1c(-c3ccccc3)n[nH]c1N2 (stereo not given) | 34.6 | 25.2 | 28.5
21 | O=C1OCC2=C1C1(C(=O)Nc3c(F)cccc31)c1c(-c3ccccc3)n[nH]c1N2 (stereo not given) | 52.3 | 37 | 37.3
22 | O=C1OCC2=C1C1(C(=O)Nc3ccc(Cl)cc31)c1c(-c3ccccc3)n[nH]c1N2 (stereo not given) | 55.2 | 50.1 | 41.2
23 | O=C1OCC2=C1C1(C(=O)Nc3ccc(Br)cc31)c1c(-c3ccccc3)n[nH]c1N2 (stereo not given) | 25.1 | 31.6 | 20.5
24 | O=C1OCC2=C1C1(C(=O)Nc3ccc(I)cc31)c1c(-c3ccccc3)n[nH]c1N2 (stereo not given) | 19.8 | 32.8 | 21.6
25 | Cc1ccc2c(c1)C1(C(=O)N2)C2=C(COC2=O)Nc2[nH]nc(-c3ccccc3)c21 (stereo not given) | 62.1 | 15.8 | 12.9
26 | COc1ccc2c(c1)C1(C(=O)N2)C2=C(COC2=O)Nc2[nH]nc(-c3ccccc3)c21 (stereo not given) | 54.7 | 50.1 | 43.6
27 | O=C1OCC2=C1C1(C(=O)Nc3ccc([N+](=O)[O-])cc31)c1c(-c3ccccc3)n[nH]c1N2 (stereo not given) | 50.1 | 51.3 | 38.5
28 | O=C1OCC2=C1C1(C(=O)N(Cc3ccccc3)c3ccccc31)c1c(-c3ccccc3)n[nH]c1N2 (stereo not given) | 31.7 | 35.4 | 15.9
29 | O=C1OCC2=C1C1(C(=O)N(Cc3ccccc3)c3ccc(Cl)cc31)c1c(-c3ccccc3)n[nH]c1N2 (stereo not given) | 3.9 | 50.2 | 35.3
30 | O=C1OCC2=C1C1(C(=O)N(Cc3ccccc3)c3ccc(Br)cc31)c1c(-c3ccccc3)n[nH]c1N2 (stereo not given) | 12.5 | 15.8 | 8.46
31 | COc1ccc2c(c1)C1(C(=O)N2Cc2ccccc2)C2=C(COC2=O)Nc2[nH]nc(-c3ccccc3)c21 (stereo not given) | 5.12 | 14.5 | 15.2
32 | O=C1OCC2=C1C1(C(=O)N(Cc3ccc4c(c3)OCO4)c3ccccc31)c1c(-c3ccccc3)n[nH]c1N2 (stereo not given) | 10.1 | 41.2 | 11.7
33 | O=C1OCC2=C1C1(C(=O)N(Cc3ccc4c(c3)OCO4)c3ccc(Cl)cc31)c1c(-c3ccccc3)n[nH]c1N2 (stereo not given) | 0.35 | 19.9 | 15.2
34 | O=C1OCC2=C1C1(C(=O)N(Cc3ccc4c(c3)OCO4)c3ccc(Br)cc31)c1c(-c3ccccc3)n[nH]c1N2 (stereo not given) | 1.92 | 63.4 | 13.6
35 | O=c1[nH]cc(F)c(=O)[nH]1 [FLUOROURACIL] | 5.82 | 7.51 | 6.37

— ChEMBL document CHEMBL3399961, “Sulfamic acid promoted one-pot three-component synthesis and cytotoxic evaluation of spirooxindoles” (Bioorg Med Chem Lett, 2015)
